From ChEMBL document CHEMBL1136348, “Advances toward new antidepressants beyond SSRIs: 1-aryloxy-3-piperidinylpropan-2-ols with dual 5-HT1A receptor antagonism/SSRI activities. Part 3” (Bioorg Med Chem Lett, 2003)

Tests used:
[1] = target: T1, 5-hydroxytryptamine receptor 1A (Homo sapiens) (UniProt P08908); experiment: Maximal stimulation of expressed human 5-hydroxytryptamine 1A receptor assayed by [35S]GTP-gamma-S, binding; format: functional
T1 sequence (whole entry): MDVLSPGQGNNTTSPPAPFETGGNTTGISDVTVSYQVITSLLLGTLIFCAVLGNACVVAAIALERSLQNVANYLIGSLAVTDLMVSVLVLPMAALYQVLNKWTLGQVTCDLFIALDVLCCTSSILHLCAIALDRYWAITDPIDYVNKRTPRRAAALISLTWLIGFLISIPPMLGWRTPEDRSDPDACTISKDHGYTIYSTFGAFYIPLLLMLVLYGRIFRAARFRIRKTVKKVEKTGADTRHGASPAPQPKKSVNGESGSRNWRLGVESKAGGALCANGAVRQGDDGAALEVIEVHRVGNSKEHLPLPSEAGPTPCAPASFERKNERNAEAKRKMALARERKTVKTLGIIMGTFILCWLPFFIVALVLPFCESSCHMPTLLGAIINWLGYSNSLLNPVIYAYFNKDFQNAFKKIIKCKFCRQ

[2] = target: T2, 5-hydroxytryptamine receptor 1A (Homo sapiens, UniProt P08908); experiment: Binding affinity towards 5-hydroxytryptamine 1A receptor in human using [3H]8-OH-DPAT as radioligand
T2 sequence (P08908 whole entry): T1 sequence (whole entry)

[3] = target: Sodium-dependent serotonin transporter (Rattus norvegicus, UniProt P31652); experiment: Affinity at the 5-HT reuptake site labeled with [3H]paroxetine using rat frontal cortex membranes; format: tissue-based, Membrane
Sodium-dependent serotonin transporter, sequence (P31652 whole entry): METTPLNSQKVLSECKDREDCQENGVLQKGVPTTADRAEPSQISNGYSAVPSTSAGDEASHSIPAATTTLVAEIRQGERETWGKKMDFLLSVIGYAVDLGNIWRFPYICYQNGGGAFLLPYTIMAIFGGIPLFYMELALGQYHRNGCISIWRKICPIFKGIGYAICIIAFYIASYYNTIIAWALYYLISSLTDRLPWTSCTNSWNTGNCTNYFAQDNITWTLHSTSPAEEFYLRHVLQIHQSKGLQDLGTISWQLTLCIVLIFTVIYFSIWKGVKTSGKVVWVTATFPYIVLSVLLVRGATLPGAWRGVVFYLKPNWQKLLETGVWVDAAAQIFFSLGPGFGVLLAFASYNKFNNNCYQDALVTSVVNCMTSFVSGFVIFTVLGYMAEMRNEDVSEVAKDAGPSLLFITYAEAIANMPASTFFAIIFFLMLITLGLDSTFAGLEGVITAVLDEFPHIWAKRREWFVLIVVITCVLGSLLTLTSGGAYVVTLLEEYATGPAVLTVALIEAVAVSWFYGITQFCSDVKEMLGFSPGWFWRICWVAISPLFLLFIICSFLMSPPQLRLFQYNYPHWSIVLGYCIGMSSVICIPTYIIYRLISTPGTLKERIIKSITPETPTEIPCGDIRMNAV

Row | SMILES | Emax [1] | Ki [2] | Ki [3]
1 | COc1cccc2sc([C@@H]3CCN(C[C@H](O)COc4cccc5oc(C)cc45)[C@@H](C)C3)cc12 | 8.76% | 4.06 nM | 38.5 nM
2 | Cc1cc2c(OC[C@@H](O)CN3CC[C@@H](c4cc5cccc(F)c5s4)C[C@H]3C)cccc2[nH]1 |  | 2.12 nM | 34.4 nM
3 | COc1cccc2sc([C@H]3C[C@H]4CC[C@@H](C3)N4C[C@H](O)COc3cccc4[nH]c(C)cc34)cc12 | 7.92% | 20.9 nM | 0.45 nM
4 | Cc1cc2c(OC[C@@H](O)CN3CC[C@@H](c4cc5c(F)cccc5s4)C[C@@H]3C)cccc2[nH]1 | 3.15% | 0.75 nM | 0.92 nM
5 | Cc1ccc2cc([C@@H]3CCN(C[C@H](O)COc4cccc5[nH]c(C)cc45)[C@@H](C)C3)sc2c1 |  |  | 1.28 nM
6 | COc1cccc2sc([C@@H]3C[C@H]4CC[C@@H](C3)N4C[C@H](O)COc3cccc4[nH]ccc34)cc12 | 7.22% |  | 
7 | COc1ccc2cc([C@@H]3CCN(C[C@H](O)COc4cccc5[nH]c(C)cc45)[C@@H](C)C3)sc2c1 | 3.21% | 13.5 nM | 2.37 nM
8 | COc1cccc2sc([C@H]3C[C@H]4CC[C@@H](C3)N4C[C@H](O)COc3cccc4[nH]ccc34)cc12 |  |  | 0.17 nM
9 | COc1cccc2sc([C@@H]3C[C@H]4CC[C@@H](C3)N4C[C@H](O)COc3cccc4[nH]c(C(N)=O)cc34)cc12 | 11.3% | 12.4 nM | 0.37 nM
10 | COc1cccc2sc([C@@H]3CCN(C[C@H](O)COc4cccc5[nH]c(C(N)=O)cc45)[C@H](C)C3)cc12 | 7.21% | 12.7 nM | 16.2 nM
11 | COc1cccc2sc([C@H]3CCN(C[C@H](O)COc4cccc5oc(C)cc45)[C@@H](C)C3)cc12 |  |  | 76.1 nM
12 | Cc1cc2c(OC[C@@H](O)CN3CC[C@@H](c4cc5cccc(F)c5s4)C[C@@H]3C)cccc2[nH]1 | 4.09% | 1.34 nM | 1.29 nM
13 | Cc1cc2c(OC[C@@H](O)CN3CC[C@@H](c4cc5ccccc5s4)C[C@@H]3C)cccc2[nH]1 | 6.09% | 7.11 nM | 0.53 nM
14 | COc1cccc2sc(C3CCN(C[C@H](O)COc4cccc5[nH]c(C)cc45)C(C)(C)C3)cc12 (stereo in doubt; 29) |  | 42.8 nM | 20.5 nM
15 | COc1cc(OC)c2cc([C@@H]3CCN(C[C@H](O)COc4cccc5[nH]c(C)cc45)[C@@H](C)C3)sc2c1 | 7.62% | 23.1 nM | 2.79 nM
16 | COc1cccc2sc([C@@H]3CCN(C[C@H](O)COc4cccc5[nH]c(C(N)=O)cc45)[C@@H](C)C3)cc12 | 12.8% | 6.36 nM | 0.56 nM

Row | SMILES | Emax [1] | Ki [2] | Ki [3]
17 | COc1cccc2sc([C@H]3CCN(C[C@H](O)COc4cccc5oc(C)cc45)[C@H](C)C3)cc12 | 6.49% | 26.8 nM | 15.2 nM
18 | COc1cccc2sc([C@@H]3C[C@H]4CC[C@@H](C3)N4C[C@H](O)COc3cccc4[nH]c(C)cc34)cc12 | 2.98% | 9.2 nM | 0.69 nM
19 | Cc1cc2c(OC[C@@H](O)CN3CC[C@@H](c4cc5cc(F)ccc5s4)C[C@@H]3C)cccc2[nH]1 | 9.05% | 5.65 nM | 0.24 nM
20 | Cc1cc2c(OC[C@@H](O)CN3CC[C@@H](c4cc5cc(Cl)ccc5s4)C[C@@H]3C)cccc2[nH]1 | 8.42% | 15.7 nM | 1.02 nM
21 | Cc1cc2c(OC[C@@H](O)CN3CC[C@@H](c4cc5ccc(F)cc5s4)C[C@@H]3C)cccc2[nH]1 | 7.26% | 12.3 nM | 0.39 nM
22 | Cc1cc2c(OC[C@@H](O)CN3CC[C@@H](c4cc5c(C)cccc5s4)C[C@@H]3C)cccc2[nH]1 | 6.32% | 10.5 nM | 0.62 nM
23 | COc1cccc2sc([C@@H]3CCN(C[C@H](O)COc4cccc5[nH]c(C)cc45)[C@H](C)C3)cc12 | 1.8% | 20.2 nM | 29 nM
24 | Cc1cc(C)c2cc([C@@H]3CCN(C[C@H](O)COc4cccc5[nH]c(C)cc45)[C@@H](C)C3)sc2c1 |  | 105 nM | 1.99 nM
25 | COc1cccc2sc([C@@H]3CCN(C[C@H](O)COc4cccc5oc(C)cc45)[C@H](C)C3)cc12 |  | 4.84 nM | 110 nM
26 | Cc1cc2c(OC[C@@H](O)CN3CC[C@H](c4cc5cccc(F)c5s4)C[C@H]3C)cccc2[nH]1 | 6.35% | 9.8 nM | 6.06 nM
27 | Cc1cc2c(OC[C@@H](O)CN3CC[C@H](c4cc5cccc(F)c5s4)C[C@@H]3C)cccc2[nH]1 |  | 19.4 nM | 47.5 nM
28 | COc1cccc2sc([C@H]3CCN(C[C@H](O)COc4cccc5[nH]c(C(N)=O)cc45)[C@H](C)C3)cc12 |  | 32 nM | 1.22 nM
29 | COc1cccc2sc([C@@H]3CCN(C[C@H](O)COc4cccc5[nH]c(C)cc45)[C@@H](C)C3)cc12 | 4.76% | 14.3 nM | 0.86 nM
30 | COc1cccc2sc([C@H]3CCN(C[C@H](O)COc4cccc5[nH]c(C(N)=O)cc45)[C@@H](C)C3)cc12 |  |  | 6.61 nM
31 | COc1cccc2sc([C@H]3CCN(C[C@H](O)COc4cccc5[nH]c(C)cc45)[C@H](C)C3)cc12 | 2.38% | 28.1 nM | 3.3 nM
32 | COc1cccc2sc(C3CCN(C[C@H](O)COc4cccc5[nH]c(C)cc45)C(C)(C)C3)cc12 (stereo in doubt; 28) |  | 9.42 nM | 118 nM
